Reference: publication PMC6152322, “Synthesis and Evaluation of New Oxadiazole, Thiadiazole, and Triazole Derivatives as Potential Anticancer Agents Targeting MMP-9” (Molecules : A Journal of Synthetic Chemistry and Natural …, 2017)
Where two headings read alike, the source gives them in different places.

Legend:
[1] = test system: A549 human lung adenocarcinoma cell line; assay: XTT cytotoxicity assay on A549 cells; assay type: cell-based; details: for IC50: Mean ± standard deviation, read-out: IC50 Values for Cell Lines A549
Description: (§1) NIH/3T3 Mouse embryonic fibroblast (ATCC® CRL-1658™, American Type Culture Collection (ATCC), Manassas, VA, USA), A549 human lung adenocarcinoma (ATCC® CCL-185™, American Type Culture Collection (ATCC), Manassas, VA, USA) and C6 rat glioma (ATCC® CCL-107™, American Type Culture Collection (ATCC), Manassas, VA, USA) cell lines were used for cytotoxicity tests. NIH/3T3 cell line was used to investigate the selectivity of the compounds, whereas other cell lines were used to determine anticancer activity. All cell lines were incubated according to the instructions of the supplier at 37 °C in a humidified atmosphere of 95% air and 5% CO2. NIH/3T3, A549 and C6 cells were seeded at 1 × 10^4 cells into each well of 96-well plate. After 24 h of incubating period, the culture mediums were removed and compound was added to culture medium at 500–3.9 μg/mL doses with a dilution factor of 2 (3.9, 7.8, 15.6, 31.2, 62.5, 125, 250, 500 μg/mL). After 24 h of incubation, XTT (2,3-bis(2-methoxy-4-nitro-5-sulfophenyl)-2H-tetrazolium-5-carboxanilide) assay was performed using the In Cytotox-XTT 1 Parameter Cytotoxicity Kit (Xenometrix, Allschwil, Switzerland) as previously described. […] All experiments were done in quadruplicates at three different time points, and the results were given as Mean ± standard deviation. Cisplatin was used as a positive control. The stock solutions of the compounds were prepared in dimethyl sulfoxide (DMSO) and further dilutions were made with fresh culture medium. The final DMSO concentration was under 0.1%.
(§2) Inhibition%=100−( corrected mean OD sample/corrected mean OD solvent controls ×100)

C6 rat glioma cell line = assay: XTT cytotoxicity assay on C6 cells; assay type: cell-based; details: 24 h incubation, Mean ± standard deviation, read-out: IC50 Values for Cell Lines C6
Description: as §1, §2

[2] = test system: NIH/3T3 mouse embryonic fibroblast cell line; assay: XTT cytotoxicity assay on NIH/3T3 cells; assay type: cell-based; details: NIH3T3, 24 h incubation, Mean ± standard deviation, read-out: IC50 Values for Cell Lines NIH/3T3
Description: as §1, §2

MMP-8 = molecular target: T1, MMP-8 (Homo sapiens, UniProt P22894); assay: MMP-8 colorimetric inhibition assay; assay type: biochemical; details: for Inhibition % (Mean ± SD) MMP-8: 1.3 μM
T1 construct: purchased Enzo Life Sciences Inc
Description: (§3) MMP-1, -2, -8, -9, -13 colorimetric kits were purchased from Enzo Life Sciences Inc. (Farmingdale, New York, NY, USA). The MMP Colorimetric Drug Discovery Kits are complete assay system designed to screen MMP inhibitors using a thiopeptide as a chromogenic substrate (Ac-PLG-[2-mercapto-4-methyl-pentanoyl]-LG-OC2H5). The MMP cleavage site peptide bond is replaced by a thioester bond in the thiopeptide. Hydrolysis of this bond by a MMP produces a sulfhydryl group, which reacts with DTNB [5,5′-dithiobis(2-nitrobenzoic acid), Ellman’s reagent] to form 2-nitro-5-thiobenzoic acid, which can be detected by its absorbance at 412 nm. The assays were conducted in triplicate. The UV absorbance was read at 412 nm using a microplate reader (BioTek, PowerWave, Gen5 software, Winooski, VT, USA) at room temperature. NNGH was used as a control inhibitor. Data was expressed as Mean ± SD [63].
(§4) The inhibitor% remaining activity of MMPs was calculated using the following equation: Inhibitor% activity remaining = (V inhibitor/V control) × 100
(§5) The inhibition (percent) of MMPs was calculated using the following equation:I (%) = 100 − Inhibitor% activity remaining

MMP-9 = molecular target: T2, MMP-9 (Homo sapiens, UniProt P14780); assay: MMP-9 colorimetric inhibition assay; assay type: biochemical; details: for inhibition at 1.3 µM: read-out: Inhibition % (Mean ± SD) MMP-9
T2 construct: purchased Enzo Life Sciences Inc
Description: as §3, §4, §5

MMP-1 = molecular target: T3, MMP-1 (Homo sapiens, UniProt P03956); assay: MMP-1 colorimetric inhibition assay; assay type: biochemical; details: 1.3 μM
T3 construct: purchased Enzo Life Sciences Inc
T3 sequence (P03956 100-469): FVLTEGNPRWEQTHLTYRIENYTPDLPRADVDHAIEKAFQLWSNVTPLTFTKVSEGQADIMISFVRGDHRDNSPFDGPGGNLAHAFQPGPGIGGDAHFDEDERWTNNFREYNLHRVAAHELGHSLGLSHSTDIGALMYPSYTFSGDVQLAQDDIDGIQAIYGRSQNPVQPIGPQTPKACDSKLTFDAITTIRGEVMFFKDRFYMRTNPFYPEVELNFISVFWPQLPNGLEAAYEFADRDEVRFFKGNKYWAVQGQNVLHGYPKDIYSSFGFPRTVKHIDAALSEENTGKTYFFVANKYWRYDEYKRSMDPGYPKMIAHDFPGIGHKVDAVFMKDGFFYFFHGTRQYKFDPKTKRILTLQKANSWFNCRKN
Description: as §3, §4, §5

MMP-2 = molecular target: T4, MMP-2 (Homo sapiens, UniProt P08253); assay: MMP-2 colorimetric inhibition assay; assay type: biochemical; details: 1.3 μM
T4 construct: purchased Enzo Life Sciences Inc
T4 sequence (P08253 110-660): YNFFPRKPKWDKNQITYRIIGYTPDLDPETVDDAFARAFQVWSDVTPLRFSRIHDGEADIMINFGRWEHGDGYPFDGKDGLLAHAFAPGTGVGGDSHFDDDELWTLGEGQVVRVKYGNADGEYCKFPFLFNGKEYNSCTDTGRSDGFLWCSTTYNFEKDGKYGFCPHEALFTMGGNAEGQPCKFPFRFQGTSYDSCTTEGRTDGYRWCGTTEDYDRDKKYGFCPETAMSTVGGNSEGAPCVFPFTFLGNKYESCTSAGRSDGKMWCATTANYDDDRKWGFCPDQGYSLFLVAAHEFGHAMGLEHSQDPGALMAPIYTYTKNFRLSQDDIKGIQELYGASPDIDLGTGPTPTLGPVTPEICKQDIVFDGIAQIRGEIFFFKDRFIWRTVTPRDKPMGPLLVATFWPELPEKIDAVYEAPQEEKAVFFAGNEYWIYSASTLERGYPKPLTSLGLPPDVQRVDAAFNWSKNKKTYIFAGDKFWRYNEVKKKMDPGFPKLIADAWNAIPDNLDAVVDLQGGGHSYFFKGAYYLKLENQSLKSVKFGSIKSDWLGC
Description: as §3, §4, §5

MMP-13 = molecular target: T5, MMP-13 (Homo sapiens, UniProt P45452); assay: MMP-13 colorimetric inhibition assay; assay type: biochemical; details: 1.3 μM
T5 construct: purchased Enzo Life Sciences Inc
Description: as §3, §4, §5

[3] = Homo sapiens, A549, 24 h incubation

T1 sequence (P22894 101-467): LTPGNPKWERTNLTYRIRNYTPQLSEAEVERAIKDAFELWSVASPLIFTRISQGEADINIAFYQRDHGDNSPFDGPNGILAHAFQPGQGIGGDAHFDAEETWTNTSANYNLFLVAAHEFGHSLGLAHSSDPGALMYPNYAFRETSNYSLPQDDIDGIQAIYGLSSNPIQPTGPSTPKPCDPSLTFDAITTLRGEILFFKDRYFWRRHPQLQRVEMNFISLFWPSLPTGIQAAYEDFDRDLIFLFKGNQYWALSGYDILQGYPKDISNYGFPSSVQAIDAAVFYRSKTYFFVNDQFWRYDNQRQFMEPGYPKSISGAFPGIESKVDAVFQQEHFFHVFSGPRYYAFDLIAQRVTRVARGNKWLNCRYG
T2 sequence (P14780 94-707): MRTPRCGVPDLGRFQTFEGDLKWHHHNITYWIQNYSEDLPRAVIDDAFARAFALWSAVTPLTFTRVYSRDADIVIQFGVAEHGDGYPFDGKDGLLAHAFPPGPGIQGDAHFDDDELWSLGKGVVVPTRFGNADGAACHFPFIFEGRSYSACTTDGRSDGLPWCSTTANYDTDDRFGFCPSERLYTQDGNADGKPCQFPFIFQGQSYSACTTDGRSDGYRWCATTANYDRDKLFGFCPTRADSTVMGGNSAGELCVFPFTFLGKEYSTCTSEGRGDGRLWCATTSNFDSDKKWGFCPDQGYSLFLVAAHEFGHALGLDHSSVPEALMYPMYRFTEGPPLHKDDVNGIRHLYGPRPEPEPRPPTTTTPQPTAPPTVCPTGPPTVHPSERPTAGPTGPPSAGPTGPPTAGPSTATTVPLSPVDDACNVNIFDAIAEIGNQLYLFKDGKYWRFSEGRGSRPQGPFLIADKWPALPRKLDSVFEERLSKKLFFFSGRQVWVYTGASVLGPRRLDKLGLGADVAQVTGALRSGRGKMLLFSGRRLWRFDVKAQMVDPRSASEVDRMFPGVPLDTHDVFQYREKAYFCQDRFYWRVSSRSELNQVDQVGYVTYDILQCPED

Compound | melting point | IC50 [2] | IC50 [1, 3] | IC50 (C6 rat glioma cell line; Rattus norvegicus, Glioma cell) | further results
N.N.[Cl][Pt][Cl] [Cisplatin, reference compound] | – | – | – | – | IC50 ([1]; 24 h incubation): 140 ± 30 µM; IC50 (C6 rat glioma cell line): 103 ± 26 µM
O=C(CSc1nnc(Nc2ccc(Cl)cc2Cl)s1)N1CCOCC1 [Compound 1, 2-{[5-((2,4-Dichlorophenyl)amino)-1,3,4-thiadiazol-2-yl]thio}-1-morpholinoethan-1-one] | 154 °C | 308 ± 37 µM | > 1230 µM | 128 ± 27 µM | inhibition at 1.3 µM (MMP-8; read-out: Inhibition % (Mean ± SD) MMP-8): 15 ± 1.4%; inhibition at 1.3 µM (MMP-9): 24.8 ± 0.86%
COc1ccc(OCc2nnc(SCC(=O)N3CCOCC3)o2)cc1 [Compound 3, 2-{[5-((4-Methoxyphenoxy)methyl)-1,3,4-oxadiazol-2-yl]thio}-1-morpholinoethan-1-one] | 119 °C | 1370 ± 74 µM | 1370 ± 58 µM | 507 ± 49 µM | –
O=C(CSc1nnc(COc2ccc3c(c2)CCCC3)o1)N1CCOCC1 [Compound 4, 2-{[5-(((5,6,7,8-Tetrahydronaphthalen-2-yl)oxy)methyl)-1,3,4-oxadiazol-2-yl]thio}-1-morpholinoethan-1-one] | – | 1280 ± 90 µM | > 1280 µM | > 1280 µM | –
O=C(CSc1nnc(Nc2ccc(Cl)cc2Cl)s1)NCc1ccc2c(c1)OCO2 [Compound 5, N-(1,3-Benzodioxol-5-ylmethyl)-2-{[5-((2,4-dichlorophenyl)amino)-1,3,4-thiadiazol-2-yl]thio}acetamide] | 187 °C | > 1070 µM | > 1070 µM | > 1070 µM | cytotoxic activity against A549 cell line (in words) ([1]; 24 h incubation): did not show any cytotoxic activity
COc1ccc(S(=O)(=O)N(CC(=O)NO)CC(C)C)cc1 [NNGH, N-isobutyl-N-(4-methoxyphenylsulfonyl)glycyl hydroxamic acid] | – | – | – | – | Inhibition % (Mean ± SD) MMP-1 (MMP-1): 87.79 ± 3.49%; Inhibition % (Mean ± SD) MMP-2 (MMP-2): 100%; Inhibition % (Mean ± SD) MMP-8 (MMP-8): 100%; Inhibition % (Mean ± SD) MMP-9 (MMP-9; 1.3 μM): 88.44 ± 3.35%; Inhibition % (Mean ± SD) MMP-13 (MMP-13): 93.74 ± 3.06%

Further lines, with some results ahead:

melting point | Compound | IC50 [2] | IC50 [1, 3] | IC50 (C6 rat glioma cell line; Rattus norvegicus, Glioma cell) | further results
213 °C | Nn1c(COc2ccccc2)nnc1SCC(=O)N1CCOCC1 [Compound 2, 2-{[4-Amino-5-(phenoxymethyl)-4H-1,2,4-triazol-3-yl]thio}-1-morpholinoethan-1-one] | 1410 ± 94 µM | > 1430 µM | > 1430 µM | –
148 °C | Nn1c(COc2ccccc2)nnc1SCC(=O)NCc1ccc2c(c1)OCO2 [Compound 6, 2-{[4-Amino-5-(phenoxymethyl)-4H-1,2,4-triazol-3-yl]thio}-N-(1,3-benzodioxol-5-ylmethyl)acetamide] | > 1210 µM | > 1210 µM | > 1210 µM | cytotoxic activity against A549 cell line (in words) ([1]; 24 h incubation): did not show any cytotoxic activity
127 °C | COc1ccc(OCc2nnc(SCC(=O)NCc3ccc4c(c3)OCO4)o2)cc1 [Compound 7, N-(1,3-Benzodioxol-5-ylmethyl)-2-{[5-((4-methoxyphenoxy)methyl)-1,3,4-oxadiazol-2-yl]thio}acetamide] | 100 ± 11 µM | > 1170 µM | > 1170 µM | cytotoxic activity against A549 cell line (in words) ([1]; 24 h incubation): did not show any cytotoxic activity
96 °C | O=C(CSc1nnc(COc2ccc3c(c2)CCCC3)o1)NCc1ccc2c(c1)OCO2 [Compound 8, N-(1,3-Benzodioxol-5-ylmethyl)-2-{[5-(((5,6,7,8-tetrahydronaphthalen-2-yl)oxy)methyl)-1,3,4-oxadiazol-2-yl]thio}acetamide] | > 1100 µM | 125 ± 20 µM | 137 ± 15 µM | Inhibition % (Mean ± SD) MMP-8 (MMP-8): no inhibitory activity; inhibition at 1.3 µM (MMP-9): 25.8 ± 2.16%
136 °C | O=C(CSc1nnc(-c2ccccc2)o1)NCc1ccc2c(c1)OCO2 [Compound 9, N-(1,3-Benzodioxol-5-ylmethyl)-2-[(5-phenyl-1,3,4-oxadiazol-2-yl)thio]acetamide] | 888 ± 29 µM | 349 ± 46 µM | 157 ± 16 µM | Inhibition % (Mean ± SD) MMP-8 (MMP-8): no inhibitory activity; inhibition at 1.3 µM (MMP-9): 30.5 ± 3.27%
